In ChEMBL document CHEMBL3797088, “Discovery and structure activity relationship study of novel indazole amide inhibitors for extracellular signal-regulated kinase1/2 (ERK1/2)” (Bioorg Med Chem Lett, 2016):
Active and inactive are the calls of the source. The rule behind the calls is not given here.

What was measured:
[1] = target: Mitogen-activated protein kinase 1 (Homo sapiens, UniProt P28482); experiment: Inhibition of human recombinant GST-tagged ERK2 expressed in Escherichia coli using ser/thr 3 Peptide as substrate preincubated for 1 hr measured after 1 hr by Z-LYTE assay
Sequence of Mitogen-activated protein kinase 1 (P28482 whole entry): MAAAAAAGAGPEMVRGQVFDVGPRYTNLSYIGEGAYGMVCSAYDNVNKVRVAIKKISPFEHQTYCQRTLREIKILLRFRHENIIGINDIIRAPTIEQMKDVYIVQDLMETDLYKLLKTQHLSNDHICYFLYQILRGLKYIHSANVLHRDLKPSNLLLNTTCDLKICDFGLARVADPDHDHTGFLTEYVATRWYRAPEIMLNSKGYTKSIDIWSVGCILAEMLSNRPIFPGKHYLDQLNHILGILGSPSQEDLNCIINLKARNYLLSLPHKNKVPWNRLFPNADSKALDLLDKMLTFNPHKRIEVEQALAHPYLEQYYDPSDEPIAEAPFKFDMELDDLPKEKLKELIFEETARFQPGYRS

[2] = system: HT-29; experiment: Antiproliferative activity against human HT-29 cells harboring B-RAF V600E mutant after 72 hrs by SRB assay; type: functional, cell-based; conditions: HT-29, 72 h
[3] = target: Mitogen-activated protein kinase 3 (Homo sapiens, UniProt P27361); experiment: Inhibition of human recombinant GST-tagged ERK1 expressed in Escherichia coli using ser/thr 3 Peptide as substrate preincubated for 1 hr measured after 1 hr by Z-LYTE assay
Sequence of Mitogen-activated protein kinase 3 (P27361 whole entry): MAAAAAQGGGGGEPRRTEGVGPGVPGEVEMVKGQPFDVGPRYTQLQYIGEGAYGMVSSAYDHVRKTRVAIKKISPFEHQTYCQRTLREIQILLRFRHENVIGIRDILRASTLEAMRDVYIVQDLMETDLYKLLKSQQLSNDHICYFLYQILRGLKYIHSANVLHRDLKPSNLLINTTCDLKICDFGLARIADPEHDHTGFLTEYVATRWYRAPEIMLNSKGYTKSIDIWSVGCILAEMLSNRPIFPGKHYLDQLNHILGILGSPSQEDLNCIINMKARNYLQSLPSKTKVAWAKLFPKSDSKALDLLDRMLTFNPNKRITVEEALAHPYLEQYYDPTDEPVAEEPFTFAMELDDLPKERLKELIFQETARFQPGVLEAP

[4] = target: Vascular endothelial growth factor receptor 1 (Homo sapiens, UniProt P17948); experiment: Inhibition of FLT1 (unknown origin) by Z-LYTE assay
[5] = target: Tyrosine-protein kinase ABL1 (Homo sapiens, UniProt P00519); experiment: Inhibition of ABL (unknown origin) by Z-LYTE assay
[6] = target: Platelet-derived growth factor receptor beta (Homo sapiens, UniProt P09619); experiment: Inhibition of PDGFRbeta (unknown origin) by Z-LYTE assay
[7] = target: Proto-oncogene tyrosine-protein kinase Src (Homo sapiens, UniProt P12931); experiment: Inhibition of c-Src (unknown origin) by Z-LYTE assay
Sequence of Proto-oncogene tyrosine-protein kinase Src (P12931 2-536 limits assumed): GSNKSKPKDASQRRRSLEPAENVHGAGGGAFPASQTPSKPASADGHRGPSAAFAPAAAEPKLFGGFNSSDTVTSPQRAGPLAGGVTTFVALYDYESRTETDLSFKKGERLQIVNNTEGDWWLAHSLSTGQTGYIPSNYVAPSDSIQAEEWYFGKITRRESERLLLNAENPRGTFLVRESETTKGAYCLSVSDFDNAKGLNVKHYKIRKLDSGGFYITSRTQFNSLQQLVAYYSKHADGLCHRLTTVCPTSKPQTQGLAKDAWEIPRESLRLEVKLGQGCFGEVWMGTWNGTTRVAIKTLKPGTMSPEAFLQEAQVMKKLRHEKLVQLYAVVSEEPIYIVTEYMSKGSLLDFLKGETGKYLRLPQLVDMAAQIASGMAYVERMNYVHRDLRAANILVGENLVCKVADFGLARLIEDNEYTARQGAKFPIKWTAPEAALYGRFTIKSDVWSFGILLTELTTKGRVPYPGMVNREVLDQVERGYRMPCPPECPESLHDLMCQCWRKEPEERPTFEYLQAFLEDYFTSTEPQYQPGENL

[8] = target: Vascular endothelial growth factor receptor 2 (Homo sapiens, UniProt P35968); experiment: Inhibition of KDR (unknown origin) by Z-LYTE assay
[9] = target: Epidermal growth factor receptor (Homo sapiens, UniProt P00533); experiment: Inhibition of EGFR (unknown origin) by Z-LYTE assay
[10] = target: Proto-oncogene tyrosine-protein kinase receptor Ret (Homo sapiens, UniProt P07949); experiment: Inhibition of RET (unknown origin) by Z-LYTE assay
Sequence of Proto-oncogene tyrosine-protein kinase receptor Ret (P07949 whole entry): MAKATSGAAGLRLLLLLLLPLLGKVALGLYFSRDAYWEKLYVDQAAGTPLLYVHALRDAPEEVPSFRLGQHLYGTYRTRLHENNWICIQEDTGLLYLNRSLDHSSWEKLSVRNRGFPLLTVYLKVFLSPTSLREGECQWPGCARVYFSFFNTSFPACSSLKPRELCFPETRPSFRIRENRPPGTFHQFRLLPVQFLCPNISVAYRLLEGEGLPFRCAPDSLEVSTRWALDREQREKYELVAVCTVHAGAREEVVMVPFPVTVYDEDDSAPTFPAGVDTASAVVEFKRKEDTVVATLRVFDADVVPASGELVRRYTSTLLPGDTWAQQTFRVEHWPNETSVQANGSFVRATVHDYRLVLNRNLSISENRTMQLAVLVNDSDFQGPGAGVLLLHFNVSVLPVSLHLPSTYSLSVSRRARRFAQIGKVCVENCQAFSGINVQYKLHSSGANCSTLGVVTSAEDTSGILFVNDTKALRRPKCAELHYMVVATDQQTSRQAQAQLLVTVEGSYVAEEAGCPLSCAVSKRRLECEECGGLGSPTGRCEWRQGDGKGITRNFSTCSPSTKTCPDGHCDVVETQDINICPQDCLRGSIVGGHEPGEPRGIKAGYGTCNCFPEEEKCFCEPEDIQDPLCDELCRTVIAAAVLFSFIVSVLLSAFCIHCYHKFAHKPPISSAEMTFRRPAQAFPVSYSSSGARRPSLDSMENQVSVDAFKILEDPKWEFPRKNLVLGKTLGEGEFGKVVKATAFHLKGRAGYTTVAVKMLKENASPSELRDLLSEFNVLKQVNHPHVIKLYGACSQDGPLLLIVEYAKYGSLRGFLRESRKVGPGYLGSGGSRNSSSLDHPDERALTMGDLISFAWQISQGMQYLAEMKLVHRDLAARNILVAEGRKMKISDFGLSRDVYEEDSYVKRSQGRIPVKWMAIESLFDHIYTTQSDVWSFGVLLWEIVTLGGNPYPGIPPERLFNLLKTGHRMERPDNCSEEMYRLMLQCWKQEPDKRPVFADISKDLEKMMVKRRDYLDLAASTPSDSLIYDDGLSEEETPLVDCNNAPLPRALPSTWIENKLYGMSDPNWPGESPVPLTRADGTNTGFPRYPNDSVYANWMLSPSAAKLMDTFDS

[11] = target: ALK tyrosine kinase receptor (Homo sapiens, UniProt Q9UM73); experiment: Inhibition of ALK (unknown origin) by Z-LYTE assay
[12] = target: Ephrin type-A receptor 2 (Homo sapiens, UniProt P29317); experiment: Inhibition of EPHA2 (unknown origin) by Z-LYTE assay
[13] = target: Insulin-like growth factor 1 receptor (Homo sapiens, UniProt P08069); experiment: Inhibition of IGF1R (unknown origin) by Z-LYTE assay
[14] = target: Hepatocyte growth factor receptor (Homo sapiens, UniProt P08581); experiment: Inhibition of c-MET (unknown origin) by Z-LYTE assay
[15] = target: Fibroblast growth factor receptor 1 (Homo sapiens, UniProt P11362); experiment: Inhibition of FGFR1 (unknown origin) by Z-LYTE assay
[16] = target: Receptor tyrosine-protein kinase erbB-2 (Homo sapiens, UniProt P04626); experiment: Inhibition of ERBB2 (unknown origin) by Z-LYTE assay
Sequence of Receptor tyrosine-protein kinase erbB-2 (P04626 whole entry): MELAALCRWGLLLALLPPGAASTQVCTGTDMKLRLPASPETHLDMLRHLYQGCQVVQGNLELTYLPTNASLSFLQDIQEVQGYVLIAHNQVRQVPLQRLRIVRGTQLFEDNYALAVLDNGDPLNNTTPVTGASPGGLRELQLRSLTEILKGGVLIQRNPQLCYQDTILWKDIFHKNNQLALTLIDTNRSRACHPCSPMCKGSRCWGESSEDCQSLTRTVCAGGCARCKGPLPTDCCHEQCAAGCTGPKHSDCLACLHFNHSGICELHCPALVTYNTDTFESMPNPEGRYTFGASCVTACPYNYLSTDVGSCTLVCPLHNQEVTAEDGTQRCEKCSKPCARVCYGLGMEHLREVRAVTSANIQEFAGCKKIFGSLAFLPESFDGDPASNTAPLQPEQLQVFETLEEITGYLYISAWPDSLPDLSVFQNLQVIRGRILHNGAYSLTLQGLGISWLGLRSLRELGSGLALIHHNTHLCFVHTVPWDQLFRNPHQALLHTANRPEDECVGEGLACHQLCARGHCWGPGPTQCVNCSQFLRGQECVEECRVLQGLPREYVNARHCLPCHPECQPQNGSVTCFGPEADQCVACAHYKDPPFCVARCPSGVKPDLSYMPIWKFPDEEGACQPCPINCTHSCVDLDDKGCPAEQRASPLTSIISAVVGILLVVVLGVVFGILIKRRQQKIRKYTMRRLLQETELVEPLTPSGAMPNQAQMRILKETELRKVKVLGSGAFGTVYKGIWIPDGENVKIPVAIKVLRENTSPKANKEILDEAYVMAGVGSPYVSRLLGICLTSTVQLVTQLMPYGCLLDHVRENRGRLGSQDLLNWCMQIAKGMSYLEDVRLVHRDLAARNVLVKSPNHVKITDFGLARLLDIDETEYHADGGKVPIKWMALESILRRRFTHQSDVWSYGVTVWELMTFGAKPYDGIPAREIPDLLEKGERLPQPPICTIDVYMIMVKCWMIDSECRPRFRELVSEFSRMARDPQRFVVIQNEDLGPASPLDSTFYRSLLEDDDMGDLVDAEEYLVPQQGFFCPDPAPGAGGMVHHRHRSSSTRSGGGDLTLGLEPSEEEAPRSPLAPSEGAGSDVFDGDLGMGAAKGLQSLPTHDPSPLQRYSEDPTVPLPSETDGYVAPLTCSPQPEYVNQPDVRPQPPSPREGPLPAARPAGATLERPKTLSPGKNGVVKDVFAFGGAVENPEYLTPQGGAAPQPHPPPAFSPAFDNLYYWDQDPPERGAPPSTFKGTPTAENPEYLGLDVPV

[17] = target: Mitogen-activated protein kinase; ERK1/ERK2 (Homo sapiens) (UniProt P27361+P28482); experiment: Inhibition of ERK1/ERK2 in human HT-29 cells assessed as reduction in p90RSK phosphorylation after 2 hrs by Western blot analysis; type: cell-based
Sequence of Mitogen-activated protein kinase; ERK1/ERK2 (Homo sapiens) (P27361 whole entry, looked up): as the sequence (P27361 whole entry) above
Sequence of Mitogen-activated protein kinase; ERK1/ERK2 (Homo sapiens) (P28482 whole entry, looked up): as the sequence (P28482 whole entry) above

[18] = Clearance in mouse at 5 mg/kg, po or 1 mg/kg, iv; type: ADME, organism-based; conditions: in vivo
[19] = target: Dual specificity mitogen-activated protein kinase kinase; MEK1/2 (Homo sapiens) (UniProt P36507+Q02750); experiment: Inhibition of ERK phosphorylation in human HT-29 cells after 2 hrs by Western blot analysis; type: cell-based
Sequence of Dual specificity mitogen-activated protein kinase kinase; MEK1/2 (Homo sapiens) (P36507 whole entry, looked up): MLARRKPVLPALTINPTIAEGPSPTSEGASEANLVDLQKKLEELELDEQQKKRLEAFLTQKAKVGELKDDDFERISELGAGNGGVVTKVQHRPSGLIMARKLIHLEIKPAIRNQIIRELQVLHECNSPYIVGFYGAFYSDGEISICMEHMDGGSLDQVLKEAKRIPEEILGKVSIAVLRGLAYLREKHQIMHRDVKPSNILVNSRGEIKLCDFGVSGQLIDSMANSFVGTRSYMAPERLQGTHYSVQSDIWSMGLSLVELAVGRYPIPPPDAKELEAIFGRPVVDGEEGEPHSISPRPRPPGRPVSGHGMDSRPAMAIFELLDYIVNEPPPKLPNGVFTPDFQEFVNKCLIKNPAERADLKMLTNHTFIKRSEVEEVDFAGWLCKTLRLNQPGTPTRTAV
Sequence of Dual specificity mitogen-activated protein kinase kinase; MEK1/2 (Homo sapiens) (Q02750 whole entry, looked up): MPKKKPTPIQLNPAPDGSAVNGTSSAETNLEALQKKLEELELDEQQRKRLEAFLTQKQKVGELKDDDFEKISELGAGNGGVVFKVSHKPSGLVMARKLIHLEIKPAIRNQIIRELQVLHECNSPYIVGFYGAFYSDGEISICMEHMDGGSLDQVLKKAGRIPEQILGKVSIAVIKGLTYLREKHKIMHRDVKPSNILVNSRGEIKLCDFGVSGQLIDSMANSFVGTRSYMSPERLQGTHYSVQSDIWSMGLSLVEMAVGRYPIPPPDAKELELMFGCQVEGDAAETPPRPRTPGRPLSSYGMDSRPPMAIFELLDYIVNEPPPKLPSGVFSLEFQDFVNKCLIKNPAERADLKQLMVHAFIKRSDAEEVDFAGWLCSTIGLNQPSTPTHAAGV

[20] = AUC (0 to 24 hrs) in mouse at 5 mg/kg, po; type: ADME, organism-based; parameters: dose 5 mg/kg, time < 24 hr, route oral; conditions: in vivo
[21] = Oral bioavailability in mouse at 5 mg/kg; type: ADME, organism-based; conditions: in vivo
[22] = Apparent permeability in human Caco2 cells assessed as Fabs after 95 mins by LC-MS/MS analysis; type: ADME, cell-based; conditions: caco-2, 95 min

CC(CNC(=O)c1ccc2[nH]nc(-c3ccncc3)c2c1)OCc1ccccc1 (stereo not given)
IC50 [1]: 0.0887 µM
IC50 [2]: 3.7 µM

Cc1cc(-c2n[nH]c3ccc(C(=O)N[C@@H](C)c4c(Cl)cccc4Cl)cc23)ccn1
IC50 [1]: 0.0095 µM
IC50 [2]: 0.48 µM
IC50 [3]: 0.0194 µM

Nc1cc(-c2n[nH]c3ccc(C(=O)NC(CO)c4cccc(Cl)c4)cc23)ccn1 (stereo not given)
IC50 [1]: 0.0156 µM
IC50 [2]: 20.9 µM
IC50 [3]: 0.0669 µM

Cc1cc(-c2n[nH]c3ccc(C(=O)NC(C)c4ccncc4)cc23)ccn1 (stereo not given)
IC50 [1]: 0.226 µM
IC50 [2]: 10.4 µM

O=C(N[C@@H](CO)c1cccc(Cl)c1)c1ccc2[nH]nc(-c3ccncc3)c2c1
IC50 [1]: 0.219 µM
IC50 [2]: 16.5 µM
IC50 [3]: 0.833 µM

O=C(NC(CO)c1cccc(Cl)c1)c1ccc2[nH]nc(-c3ccccc3)c2c1 (stereo not given)
IC50 [1]: 0.276 µM
IC50 [2]: 6 µM

CC(NC(=O)c1ccc2[nH]nc(-c3ccncc3)c2c1)c1cccc(Cl)c1 (stereo not given)
IC50 [1]: 0.0531 µM
IC50 [4]: > 1 µM
IC50 [2]: 0.9 µM
IC50 [5]: > 1 µM
IC50 [3]: 0.154 µM
IC50 [6]: > 1 µM
IC50 [7]: > 1 µM
IC50 [8]: > 1 µM
IC50 [9]: > 1 µM
IC50 [10]: > 1 µM
IC50 [11]: > 1 µM
IC50 [12]: > 1 µM
IC50 [13]: > 1 µM
IC50 [14]: > 1 µM
IC50 [15]: > 1 µM
IC50 [16]: > 1 µM

O=C(N[C@H](CO)c1cccc(Cl)c1)c1ccc2[nH]nc(-c3ccncc3)c2c1
IC50 [1]: 0.007 µM
IC50 [2]: 1.9 µM
IC50 [3]: 0.0263 µM

O=C(NCc1ccnc(Cl)c1)c1ccc2[nH]nc(-c3ccncc3)c2c1
IC50 [1]: 0.0225 µM
IC50 [2]: 9.4 µM
IC50 [3]: 0.0264 µM

O=C(NC(CO)c1cc(Cl)cc(Cl)c1)c1ccc2[nH]nc(-c3ccncc3)c2c1 (stereo not given)
IC50 [1]: 0.0611 µM
IC50 [2]: 3.4 µM

O=C(NCc1ccc(Cl)c(F)c1Cl)c1ccc2[nH]nc(-c3ccncc3)c2c1
IC50 [1]: 0.0119 µM
IC50 [2]: 1.5 µM
IC50 [3]: 0.0292 µM

O=C(NCc1ccccc1Cl)c1ccc2[nH]nc(-c3ccncc3)c2c1
IC50 [1]: 0.0313 µM
IC50 [2]: 2.8 µM
IC50 [3]: 0.0463 µM

Cc1cc(-c2n[nH]c3ccc(C(=O)NCc4c(Cl)cnc(Cl)c4Cl)cc23)ccn1
IC50 [1]: 0.0079 µM
IC50 [2]: 1.1 µM
IC50 [3]: 0.0167 µM

Cc1cc(-c2n[nH]c3ccc(C(=O)NC(C)c4c(Cl)cncc4Cl)cc23)ccn1 (stereo not given)
inhibition [17]: Dose-dependent effect
clearance [18]: 163 mL/min/kg
IC50 [1]: 0.0167 µM
IC50 [4]: > 1 µM
IC50 [2]: 0.35 µM
IC50 [5]: > 1 µM
IC50 [3]: 0.0293 µM
IC50 [6]: > 1 µM
IC50 [7]: > 1 µM
IC50 [8]: > 1 µM
IC50 [9]: > 1 µM
IC50 [10]: > 1 µM
IC50 [11]: > 1 µM
inhibition [19]: inactive
AUC(0-t) at 24 h [20]: 61 ng·h/mL
IC50 [12]: > 1 µM
IC50 [13]: > 1 µM
bioavailability [21]: 12%
IC50 [14]: > 1 µM
IC50 [15]: > 1 µM
IC50 [16]: > 1 µM

O=C(NCc1c(Cl)cccc1Cl)c1ccc2[nH]nc(-c3ccncc3)c2c1
IC50 [1]: 0.154 µM
IC50 [2]: 8.4 µM

O=C(NC(CO)c1cccc(Cl)c1)c1ccc2[nH]nc(-c3ccncc3)c2c1 (stereo not given)
Fabs [22]: 69%
IC50 [1]: 0.0241 µM
IC50 [2]: 5.5 µM
IC50 [3]: 0.0724 µM

O=C(NC(CO)c1cccc(Cl)c1)c1ccc2[nH]nc(C3CCOCC3)c2c1 (stereo not given)
IC50 [1]: 0.297 µM
IC50 [2]: 11.5 µM

O=C(NCc1ccccc1)c1ccc2[nH]nc(-c3ccncc3)c2c1
IC50 [1]: 0.0506 µM
IC50 [2]: 13.3 µM
IC50 [3]: 0.106 µM

CC(C)Nc1cc(-c2c[nH]c(C(=O)N[C@H](CO)c3ccccc3)c2)c(Cl)cn1
IC50 [1]: 0.0159 µM
IC50 [2]: 1.6 µM

O=C(NC(CO)c1cccc(Cl)c1)c1ccc2[nH]nc(-c3ccc(O)c(F)c3)c2c1 (stereo not given)
IC50 [1]: 0.0329 µM
IC50 [2]: 2.5 µM
IC50 [3]: 0.111 µM

CC(CNC(=O)c1ccc2[nH]nc(-c3ccncc3)c2c1)Oc1ccccc1 (stereo not given)
IC50 [1]: 0.0386 µM
IC50 [2]: 6 µM
IC50 [3]: 0.128 µM

Cc1cc(-c2n[nH]c3ccc(C(=O)NC(C)c4cccc(Cl)c4)cc23)cc(C)n1 (stereo not given)
clearance [18]: 42 mL/min/kg
IC50 [1]: 0.11 µM
IC50 [2]: 3.8 µM
AUC(0-t) at 24 h [20]: 162 ng·h/mL
bioavailability [21]: 8%

CC(C)CC(NC(=O)c1ccc2[nH]nc(-c3ccncc3)c2c1)c1cccc(Cl)c1 (stereo not given)
IC50 [1]: > 2 µM
IC50 [2]: 7.1 µM

O=C(NCCc1ccccc1)c1ccc2[nH]nc(-c3ccncc3)c2c1
IC50 [1]: 0.0194 µM
IC50 [2]: 3.3 µM
IC50 [3]: 0.0387 µM

Cc1cc(-c2n[nH]c3ccc(C(=O)NC(CO)c4cccc(Cl)c4)cc23)ccn1 (stereo not given)
IC50 [1]: 0.0179 µM
IC50 [2]: 2.4 µM
IC50 [3]: 0.0534 µM

CCC(NC(=O)c1ccc2[nH]nc(-c3ccncc3)c2c1)c1cccc(Cl)c1 (stereo not given)
IC50 [1]: 0.0589 µM
IC50 [2]: 1.5 µM
IC50 [3]: 0.0787 µM

O=C(NCc1c(Cl)cncc1Cl)c1ccc2[nH]nc(-c3ccncc3)c2c1
Fabs [22]: 99%
IC50 [1]: 0.0093 µM
IC50 [2]: 6.1 µM
IC50 [3]: 0.0555 µM

O=C(NCCCc1ccccc1)c1ccc2[nH]nc(-c3ccncc3)c2c1
IC50 [1]: 0.0338 µM
IC50 [2]: 4.5 µM
IC50 [3]: 0.0429 µM

Cc1cc(-c2n[nH]c3ccc(C(=O)NC(C)c4c(Cl)cnc(Cl)c4Cl)cc23)ccn1 (stereo not given)
inhibition [17]: Dose-dependent effect
IC50 [1]: 0.0132 µM
IC50 [2]: 0.713 µM
IC50 [3]: 0.0222 µM
inhibition [19]: inactive

O=C(NCCc1cccc(Cl)c1)c1ccc2[nH]nc(-c3ccncc3)c2c1
IC50 [1]: 0.425 µM
IC50 [2]: 15.3 µM

Cc1cc(-c2n[nH]c3ccc(C(=O)N[C@H](C)c4c(Cl)cccc4Cl)cc23)ccn1
IC50 [1]: 0.632 µM
IC50 [2]: 10.7 µM

O=C(NCCNc1ccccc1)c1ccc2[nH]nc(-c3ccncc3)c2c1
IC50 [1]: 0.139 µM
IC50 [2]: 6.7 µM

O=C(NCc1cccc(Cl)c1)c1ccc2[nH]nc(-c3ccncc3)c2c1
IC50 [1]: 0.0126 µM
IC50 [2]: 2.3 µM
IC50 [3]: 0.0742 µM

CC(NC(=O)c1ccc2[nH]nc(-c3cc(F)c(O)c(F)c3)c2c1)c1cccc(Cl)c1 (stereo not given)
IC50 [1]: 0.0224 µM
IC50 [2]: 3.3 µM
IC50 [3]: 0.0323 µM

O=C(NCCOc1ccccc1)c1ccc2[nH]nc(-c3ccncc3)c2c1
IC50 [1]: 0.0633 µM
IC50 [2]: 9.1 µM

CC(NC(=O)c1ccc2[nH]nc(-c3ccncc3)c2c1)c1ccccc1Cl (stereo not given)
IC50 [1]: 0.0167 µM
IC50 [2]: 3.5 µM
IC50 [3]: 0.0359 µM

C[C@H](NC(=O)c1ccc2[nH]nc(-c3ccncc3)c2c1)c1cccc(Cl)c1
IC50 [1]: 0.469 µM
IC50 [2]: 7.5 µM
